Assay results reported in US8071810B2, “C5a receptor antagonists” (Jerini AG, priority 2005, dated 2011).

Columns and labels:
[1] = test system: E. coli induced oxidative burst in human whole blood; assay: E. coli induced oxidative burst in human whole blood (Phagoburst kit, Example 26); type: cell-based; settings: read-out: IC50 for the inhibition of the E. coli induced oxidative burst in human whole blood
Protocol: The whole blood assay is carried out according to the instructions from the Phagoburst-Kit (Orpegen Pharma). 50 μg/ml of Refludan is used to inhibit blood clotting (Mollnes et al. 2002 Blood 100: 1869). Freshly drawn, anticoagulated blood is cooled over ice and 100 μl thereof are added to 10 μl of the compound solution containing at most 1.3% of DMSO. The mixture is incubated for 10 minutes at 37° C. After this the samples are put on ice again and 20 μl of opsonisated E. coli suspension (10^9 cells/ml) is added followed by 10 minutes of incubation at 37° C. 20 μl of the substrate are added to the cells followed by another 10 minutes of incubation at 37° C. After this 2 ml of lysis buffer are added to the cells, which are then kept at room temperature for 20 minutes. The cellular components are separated by centrifugation at 250×g for 5 minutes. The supernatant is discarded and 3 ml of washing solution are added to the pellet. The cells are centrifuged again and the resulting pellet is taken up in 200 μl DNA staining solution. The neutrophiles are analysed by means of a FACS device (FACSCalibur, Becton-Dickinson) according to the parameters given in the manual. […] It can be seen that, due to the determined activity, the compounds of this invention are suited to be used as therapeutics in human.

[2] = target: T1, human C5a receptor (CD88) (Homo sapiens, UniProt P21730); assay: Agonism in enzyme release assay without C5a stimulus (Example 32); type: cell-based; settings: concentration applied 7.1 μM
T1 construct: expressed in transfected cells; host or cells: rat basophilic leukemia (RBL) cells, stably transfected
T1 sequence (P21730 1-350): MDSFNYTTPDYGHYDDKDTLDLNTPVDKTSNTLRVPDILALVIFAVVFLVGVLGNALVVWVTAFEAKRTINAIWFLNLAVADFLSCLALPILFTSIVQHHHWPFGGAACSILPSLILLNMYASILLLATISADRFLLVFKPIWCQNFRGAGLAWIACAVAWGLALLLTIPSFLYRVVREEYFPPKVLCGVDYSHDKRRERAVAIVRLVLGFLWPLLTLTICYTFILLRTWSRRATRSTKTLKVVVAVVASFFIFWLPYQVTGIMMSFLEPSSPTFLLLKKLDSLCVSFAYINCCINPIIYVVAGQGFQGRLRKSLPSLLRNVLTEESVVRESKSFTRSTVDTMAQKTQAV
Protocol: The assay has been described by Köhl (Köhl 1997 The Anaphylatoxins. In: Dodds, A. W., Sim, R. B. (Eds.), Complement: A Practical Approach. Oxford: 135). Basophile leukemia cells from rats (RBL), which express the human C5a receptor (CD88), are cultivated in DMEM with 10% fetal calf serum, 100 U/ml penicillin, 100 μg/ml streptomycin and 2 mM glutamin (all constituents are from Biochrome, Berlin) at 37° C. and with 10% CO2 until a confluent layer is obtained. All following details refer to a tissue culture flask with 75 cm^2 surface. The used up medium is removed. The cells are washed with 10 ml PBS (Dulbecco's PBS, Biochrome) and then covered with 3 ml cell dissociation solution (CDS, Sigma). The cells are incubated for 1 minute at room temperature. Then the CDS is removed and the cells are incubated for further 10-15 minutes at 37° C. to detach the cells completely from the flask. 20 μl solution of the compound to be testet are used in the assay. The assay solution must not contain more than 2.8% DMSO. The dilution series are prepared in ⅓ or ½ steps. To the 20 μl of the compound solutions 75 μl RBL cells are added which are prepared as follows: After the detachment of the cells from the flask surface they are taken up with 10 ml HAG-CM (20 mM HEPES; 125 mM NaCl, 5 mM KCl, 1 mM CaCl2, 1 mM MgCl2, 0.5 mM glucose, 0.25% BSA. HEPES preparation: 2.3 g/l HEPES salt+2.66 g/l HEPES acid) thermostated at 37° C. The cells are counted and centrifuged (200 g, 10 min). The cell pellet is taken up with pre-heated HAG-CM, and the cell density is adjusted to 2×10^6 Zellen/ml. The cells are incubated for 5 minutes at 37° C. 2.7 μl of a cytochalasin B solution (1000 μg/ml in DMSO, Sigma) are added per ml cell suspension. The Zellen are incubated for another 3 min at 37° C. Then, 75 μl of the cell suspension are added to the 20 μl solution containing the compounds to be tested. Thus a volume of […] per well is obtained. The cells are again incubated for 10 minutes at 37° C. Then 10 μl hrC5a (10.5 nM in HAG-CM, Sigma) are added per well, which is followed by 5 minutes incubation at 37° C. After this the plates are put on ice and centrifuged for 3 minutes at 1200×g and 4° C. 75 μl of the supernatant are added to 100 μl substrate solution (2.7 mg/ml p-nitrophenyl-N-acetyl-b-D-glucosaminide (Sigma) in 42.5 mM sodium acetate, pH 4.5). The plate is incubated for 1 hour at 37° C. Per well 75 μl 0.4 M glycine (pH 10.4) are added. After this the plate can be measured at a wave length of 405 nm. The IC50 value is determined by solving the four parameter equation y=((A−D)/(1+(x/C)^B))+D.
The only difference is the fact that 30 μl of the substance to be tested are mixed with 75 μl of the cell suspension described in example 28. The cells are not pre-incubated and no C5a is added to stimulate enzyme release.

| SMILES | IC50 [1] [nM] | Agonism (% of the maximum enzyme release induced by C5a) [2] [%] |
| --- | --- | --- |
| CCc1c(N)cc(Cl)c(CC)c1NC(=O)N(Cc1ccc(Cl)cc1)c1ccc(CC(F)(F)F)cc1 [compound 103, 3-(3-amino-5-chloro-2,6-diethyl-phenyl)-1-(4-chloro-benzyl)-1-[4-(2,2,2-trifluoro-ethyl)-phenyl]-urea] | 800 | 0.00 |
| CCc1ccc(N(Cc2ccc(C)nc2)C(=O)Nc2c(CC)c(N)cc(Cl)c2CC)cc1 [compound 106, 3-(3-amino-5-chloro-2,6-diethyl-phenyl)-1-(4-ethyl-phenyl)-1-(6-methyl-pyridin-3-ylmethyl)-urea] | 1600 | 0.00 |
| CCc1ccc(N(C(=O)Nc2c(CC)c(N)cc(Cl)c2CC)C(C)c2ccc3c(c2)ncn3C)cc1 (stereo not drawn) [compound 122, 3-(3-amino-5-chloro-2,6-diethyl-phenyl)-1-(4-ethyl-phenyl)-1-[1-(1-methyl-1H-benzoimidazol-5-yl)-ethyl]-urea] | 3500 | 0.00 |
